Reference: patent publication US20250197799A1, “CELLS DERIVED FROM POLYPEDILUM VANDERPLANKI AND ODOR SENSOR EQUIPPED THEREWITH” (University of Maryland, College Park, priority 2022, published 2025)

Assays:
Orco = molecular target: T1, Orco (Drosophila melanogaster, UniProt Q9VNB5); assay: Exogenous membrane protein function after drying-rehydration, Orco stable expression cell line; assay type: cell-based; settings: 1 hour after drying and rehydration
T1 construct: remnant residues; expressed in transfected cells; host or cells: Pv11 cells (Polypedilum vanderplanki), knock-in at the Pv.00443 locus downstream of the 121 promoter, single-cell sorting
T1 sequence (Q9VNB5 1-486): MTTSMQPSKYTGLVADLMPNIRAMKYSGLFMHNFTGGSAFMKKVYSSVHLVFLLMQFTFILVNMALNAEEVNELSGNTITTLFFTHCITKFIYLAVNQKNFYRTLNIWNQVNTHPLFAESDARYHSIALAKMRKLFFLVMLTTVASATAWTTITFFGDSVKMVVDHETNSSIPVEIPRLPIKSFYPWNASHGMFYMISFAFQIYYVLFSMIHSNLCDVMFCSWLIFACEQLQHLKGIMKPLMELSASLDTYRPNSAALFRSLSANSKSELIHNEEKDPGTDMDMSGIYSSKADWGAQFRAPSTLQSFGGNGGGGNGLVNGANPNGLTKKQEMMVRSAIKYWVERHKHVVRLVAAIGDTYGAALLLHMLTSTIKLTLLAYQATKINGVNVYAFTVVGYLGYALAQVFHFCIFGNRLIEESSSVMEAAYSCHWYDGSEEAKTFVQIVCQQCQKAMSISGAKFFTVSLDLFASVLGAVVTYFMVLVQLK
Procedure: To assess the drought tolerance of the cell lines, the cells were dried according to the following protocol. 4×10^7 Pv11-GCaMP6f stable expression cell lines were centrifuged at 700 g for 3 minutes and the supernatant removed. The precipitated cells were suspended in a 600 mM trehalose mix of 600 mM trehalose and IPL-41 medium at a ratio of 9:1, transferred to a 2 ml flask, and incubated at 25° C. for 48 hours. After 48 hours, the obtained cells were centrifuged at 700 g for 3 minutes and the supernatant was removed. The sedimented cells were suspended in 400 μl of 600 mM trebalose mix, and 40 μl were dropped onto a 35 mm dish. […]
6. […] Using the Orco stable expression cell line and Orco-Or47a stable expression cell line, in order to assess the function of exogenous membrane proteins before drying and after 1 hour of rehydration after drying, fluorescence intensity generated in response to stimulation with VUAA1 (Orco agonist) or pentyl acetate (ligand of Or47a) was measured in the same manner as in 3.2 above.
The fluorescence intensity was digitized from the photograph, and ΔF/F was calculated according to the following formula:
Where the summation Σi=1^n is over the n cells in the image, Fi,after means the fluorescence intensity of the cell i after adding the ligand solution, and Fi,0 means the fluorescence intensity of the cell i before adding the ligand solution. […]

Orco-Or47a = molecular target: T2, Orco-Or47a (Drosophila melanogaster, UniProt P81921+Q9VNB5); assay: Ligand assay using a perfusion system; assay type: cell-based; set-up: remnant residues; expressed in transfected cells; host or cells: Pv11 cells (Polypedilum vanderplanki), CRIS-PITCh knock-in at the Pv.00443 locus downstream of the 121 promoter, Zeocin selection and single-cell sorting; settings: 1 mM pentyl acetate perfused 5 minutes at 1 mL/min; BAM-fixed cells
T2 sequence (Q9VNB5 1-486): T1 sequence (Q9VNB5 1-486)
T2 sequence (P81921 1-385): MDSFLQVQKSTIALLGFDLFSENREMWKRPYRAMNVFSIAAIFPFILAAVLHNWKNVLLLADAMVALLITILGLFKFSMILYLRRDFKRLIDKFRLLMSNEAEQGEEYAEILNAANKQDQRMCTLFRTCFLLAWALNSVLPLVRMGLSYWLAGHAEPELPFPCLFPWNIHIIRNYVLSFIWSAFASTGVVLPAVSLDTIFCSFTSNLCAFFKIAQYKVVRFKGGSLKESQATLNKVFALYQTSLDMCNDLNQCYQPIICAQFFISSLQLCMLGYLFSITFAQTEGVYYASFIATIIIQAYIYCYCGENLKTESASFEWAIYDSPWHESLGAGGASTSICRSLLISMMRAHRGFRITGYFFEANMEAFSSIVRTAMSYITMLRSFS
Procedure: 9.1 Ligand assay. A ligand assay was performed using a perfusion system using Orco-Or47a stable expression cell line and GCaMP6f stable expression cell line. […] The Orco-Or47a stable expression cell line and the GCaMP6f stable expression cell line were fixed with BAM as described in 8.1 above and perfused at a flow rate of 1 mL/min using a peristaltic pump (SJ-1211 II-L2, ATTO). The perfusion solution was ACSF buffer (125 mM NaCl, 5.6 mM KCl, 1.25 mM Na2HPO4, 10 mM HEPES, 1.5 mM CaCl2), pH7.4) as a standard solution. As a ligand for Or47a, pentyl acetate was diluted to a final concentration of 1 mM, and as a negative control, DMSO was diluted to 1% by mass. The standard solution was perfused, switched to 1 mM pentyl acetate solution or 1% by mass DMSO solution, and perfusion was performed for 5 minutes. Photographing of the cells was started after waiting for the 1 mM pentyl acetate solution or 1% by mass DMSO solution to reach the cells in about 60 seconds. Bright-field and fluorescence images of the perfused Pv11 cells were taken 30 times at 10-second intervals (LSM700, ZEISS). The method for obtaining ΔF/F0 was as described above. 25 cells were selected from the captured image, each produced ΔF/F0, and the response was maintained for about 4 minutes; from this it was confirmed that the present disclosure can be applied as an odor sensor capable of rapid odor determination.

Row | SMILES | fluorescence on stimulation (Orco) | time the response was maintained (Orco-Or47a)
1 | CCc1ccc(NC(=O)CSc2nnc(-c3cccnc3)n2CC)cc1 [VUAA1, N-(4-ethylphenyl)-2-{[4-ethyl-5-(pyridin-3-yl)-4H-1,2,4-triazol-3-yl]sulfanyl}acetamide] | fluorescence was observed | 
2 | CCCCCOC(C)=O [pentyl acetate] |  | about 4 minutes
